According to patent US20060165683A1, “Methods and compositions for control of bone formation via modulation of sympathetic tone” (priority 2001, published 2006):

Experiments:
ob/ob mice = test: Long-term isoproterenol treatment of ob/ob mice; assay type: in vivo, mouse
Method: Wildtype (C57BL/6J) and mutant (C57BL/6J A^y/a, C57BL/6J ob/ob) mice were obtained from the Jackson laboratory and adrenal medullectomized mice from Harlan Tecklad laboratory. Dbh−/− mice were rescued as previously described (Thomas et al., 1998, Neurochem 70:2468-2476). […] Propranolol (Sigma) was added to the drinking water at a concentration of 0.5 g/l. For ICV infusion, a 28-gauge cannula (Brain infusion kit II, Alza) was implanted into the third ventricle as previously described infusing human leptin (Sigma) at 8 ng/hr or MT-II at 125 ng/hr (Phoenix Pharmaceuticals) for 28 days (see, e.g., Ducy et al., 2000, Cell 100: 197-207). The cannula was connected to an osmotic pump (Alza) placed in the dorsal subcutaneous space of the animal. For parabiosis longitudinal incisions were made in the skin and in the peritoneal cavity along one side on each mouse. Edges of the incisions were connected by suture to induce coelioanastomosis. Cross-circulation was quantified by injecting 1 ml/kg 0.25% Evans blue into the tail vein of one mouse of the parabiosed pair. After 30 min. blood was collected from both mice by retroorbital bleeding and the blood exchange rate was calculated according to standard techniques (see, e.g., Harris & Martin, 1984, Am J Physiol 247:R380-386). […] Two weeks after parabiosis a pump delivering leptin ICV in one animal of each pair was implanted. For GTG lesioning, 4-week-old C57BL/6J mice were given a single ip injection of either PBS or GTG (0.5 mg/g). For MSG lesioning, 2 day-old C57BL/6J pups were injected daily subcutaneously with either PBS or MSG (2 mg/g) for 10 days.
Histological analyses were performed on undecalcified sections stained by von Kossa and counterstained by von Gieson (see, e.g., Ducy et al., 2000, Cell 100:197-207). Static and dynamic histomorphometric analyses were performed according to standard protocols (see, e.g., Parfitt et al., 1987, J Bone Miner Res 6:595-610) using the Osteomeasure Analysis System (Osteometrics, Atlanta). Six to 12 animals were analyzed for each group. Statistical significance was assessed by Student's t test.
Primary osteoblast cultures were established as previously described (see, e.g., Ducy et al., 2000, Cell 100: 197-207) and maintained in αMEM/0.1 mg/ml ascorbic acid supplemented with 10% FBS. SaOS-2 were grown in MEM/10% FBS. For cAMP assay confluent cultures were incubated with serum free medium containing 100 μM IBMX (3-isobutyl-1-methylxanthine, Sigma) for 8 minutes before PBS, PTH(1-34) (Bachem), isoproterenol, norepinephrine, phenylephrine (Sigma) or propranolol were added for 5 min. Intracellular cAMP concentration was measured by immunoassay (R&D Systems). For gene expression analyses, primary osteoblasts were treated for 72 hours with appropriate drugs in 0.1% FBS. Hormone serum levels were quantified using immunoassays kits from Peninsula Laboratories (Insulin) or Alpco Diagnostics (leptin). Deoxypyridinoline cross-links and Creatinine were measured in morning urines using the Quidel kits. a1(I) leptin bioactivity was verified by cotransfection of 293 cells expressing ObRb with a STAT3-responsive-luc reporter construct, pSVβgal plasmid and a1(I) leptin expression vector or mock. Twenty-four hours later luciferase and β-galactosidase activities were measured. Data represents ratios of luciferase/β-galactosidase activities, and values are mean of 6 independent transfection experiments.
To address this point one month-old ob/ob mice were treated for 6 weeks with the β-adrenergic agonist isoproterenol or vehicle.

[1] = test system: osteoblasts in calvariae of newborn mice; test: In vivo osteoblast proliferation assay (BrdU labeling, calvariae); set-up: species or system mouse; conditions: newborn wt mice treated daily for 5 days; 40 μg isoproterenol or 4 μg dexamethasone
Method: Specimens were embedded in paraffin and sectioned at 6 μm. Brains were stained with 0.1% cresyl violet using standard procedures. Immunohistochemistry was performed according to standard protocols (see, e.g., Ausubel, 1995, Current Protocols in Molecular Biology, New York). […] BrdU incorporation was detected by immunohistochemistry using Zymed BrdU staining kit (Zymed Laboratories Inc.). Four pups per treatment were analyzed and 10 calvariae sections were counted per animal. NovaRED was used as a chromogenic peroxidase substrate. Sections were counterstained with hematoxylin.

[2] = ob/ob mice, 3 mg/kg/day, 6 weeks

Q: Which results are given for CC(C)NCC(O)c1ccc(O)c(O)c1 (stereo not drawn) [isoproterenol]?
A: Bone Volume (ob/ob mice; ob/ob + isoproterenol): Low; expression of uncoupling protein 1 (Ucp1) in brown adipose tissue (ob/ob mice; ob/ob mice): increased; bone formation rate (ob/ob mice; [2]): marked decrease; bone resorption parameters (ob/ob mice; [2]): unaffected; number of osteoblasts per bone surface (ob/ob mice; [2]): marked decrease; bone mass and bone formation parameters compared with 3 mg/kg/day (ob/ob mice; ob/ob mice, 10 mg/kg/day): Identical results; body weight (ob/ob mice; ob/ob mice, 3 and 10 mg/kg/day): without affecting; bone mass in the vertebrae and long bones (ob/ob mice; one month-old ob/ob mice, 3 mg/kg/day ip, 6 weeks): massive bone loss; number of BrdU positive cells in calvariae compared to control mice (osteoblast proliferation) [1]: nearly two-fold reduction
